Data: publication PMC7554696 (International Journal of Molecular Sciences, 2020)
Residues, ends and D or L forms follow the SMILES beside them. *: point of attachment. Doxorubicin(3'-N) = COc1cccc2c1C(=O)c1c(O)c3c(c(O)c1C2=O)C[C@@](O)(C(=O)CO)C[C@@H]3O[C@H]1C[C@H](N*)[C@H](O)[C@H](C)O1; Fmoc = O=C(OCC1c2ccccc2-c2ccccc21)*

Assays:
[1] = test system: dsDNA (DNA, duplex) CGTACGCGTACGCGTACGCG/CGCGTACGCGTACGCGTACG; assay: ITC (single set of identical sites); conditions: 10 mM Tris-HCl pH 7.2, 25 °C
[2] = test system: dsDNA (DNA, duplex) CGTACGCGTACGCGTACGCG/CGCGTACGCGTACGCGTACG; assay: fluorescence quenching titration (Lineweaver–Burk, ex 490 nm, em 594 nm); conditions: 10 mM Tris-HCl pH 7.2, 25 °C; 1.94 µM compound; average of two experiments
[3] = test system: dsDNA (DNA, duplex) CGTACGCGTACGCGTACGCG/CGCGTACGCGTACGCGTACG; assay: UV-Vis absorbance titration (Benesi–Hildebrand, 480 nm); conditions: 10 mM Tris-HCl pH 7.2, 25 °C; 18 µM compound, no added salt stated
[4] = test system: dsDNA (20 bp, 5′-CGTACGCGTACGCGTACGCG-3′ duplex); assay: Isothermal titration calorimetry (ITC) with dsDNA; assay type: binding; conditions: 10 mM Tris-HCl pH 7.2, 25 °C
[5] = test system: dsDNA (20 bp, 5′-CGTACGCGTACGCGTACGCG-3′ duplex); assay: UV-Vis spectrophotometric titration with dsDNA (Benesi–Hildebrand); assay type: binding; conditions: 10 mM Tris-HCl pH 7.2, 25 °C
[6] = test system: dsDNA (20 bp, 5′-CGTACGCGTACGCGTACGCG-3′ duplex); assay: Steady-state fluorescence quenching titration with dsDNA; assay type: binding; conditions: 10 mM Tris-HCl pH 7.2, 25 °C
dsDNA = assay: Time-resolved fluorescence lifetime measurement; assay type: physicochemical; conditions: λex 420 nm, λem 594 nm, 20 °C, ligand 5 µM, constant regardless of dsDNA concentration (0–0.25 µM)
[7] = test system: collagenase IV (containing MMP-2/-9); assay: Enzymatic cleavage of MMP-2/-9-cleavable octapeptide by collagenase IV (HPLC); assay type: in vitro ADME; conditions: 37 °C, APMA-activated 1 mM collagenase IV in HBSS, HPLC read-out
Method: The MMP-2/-9-cleavable peptide was degraded by collagenase IV (containing MMP-2/-9) in a time-dependent manner. […] In order to investigate how fast the octapeptide cleaved, the aliquots were removed after 2, 8, and 12 h.
The MMP-2/-9-cleavable octapeptide Fmoc–Gly–Pro–Leu–Gly–Leu–Ala–Gly–Gly was evaluated by enzymatic digestion with the use of collagenase IV (containing MMP-2/-9). In the first step, 1 mL of HBSS was added to […] of collagenase IV (205 u/mg) and mixed to complete dissolution. Activation of collagenase IV was performed using 1 mM APMA in 0.15 M NaOH for 1.5 h at 37 °C [24, 43]. The octapeptide stock solution was added to activated 1 mM collagenase IV and incubated at 37 °C. The aliquots were removed and analyzed by HPLC, between 2 and 12 h. The HPLC Dionex Ultimate 3000 (Waltham, MA, USA) was equipped with a bioZen Intact XB-C8 column (3.6 μm, 2.1 × 150 mm; Phenomenex, Aschaffenburg, Germany). The flow rate was set at 0.5 mL/min with a mobile phase consisting of solvent A (0.1% TFA) and solvent B (100% ACN). The gradient was as follows: 0–5 min, 0% of solvent B; 5–8 min, 0–30% of solvent B. The hydrolysis product was detected by MALDI TOF/TOF 5800 mass spectrometry (AB Sciex, Darmstadt, Germany).

Structure (SMILES) | logKITC ([1]; 0.470 mM compound into 0.005 mM dsDNA) | KA [2] | KA [3] | logKITC ([1]; 0.174 mM compound into 0.002 mM dsDNA) | molar ratio of complex (ligand to dsDNA) from ITC ([4]; standard deviation in parentheses) | logKITC ([4]; ITC, single set of identical binding sites model, SD in parentheses) | ΔHITC ([4]; ITC, SD in parentheses) | TΔSITC ([4]; ITC, calculated from ΔGITC = ΔHITC − TΔSITC) | ΔGITC ([4]; ITC, ΔGITC = −RTlnKITC, SD in parentheses) | intrinsic association constant KA (ligand…dsDNA), Benesi–Hildebrand ([5]; UV-Vis absorbance at 480 nm, ligand 18 µM, dsDNA up to 1.90 µM) | free energy of binding ΔG = −RTlnKA ([5]; from spectrophotometric KA) | bimolecular quenching rate constant kq (Stern–Volmer) ([6]; fluorescence quenching by dsDNA, λex 490 nm, emission 594 nm, ligand 1.94 µM) | number of binding sites n (Scatchard, slope of log[(F0−F)/F] vs log[Q]) ([6]; fluorescence titration, ligands bound per dsDNA molecule) | fluorescence lifetime τ0 (dsDNA) | MMP-2/-9 cleaved product Fmoc–Gly–Pro–Leu–Gly detected (efficiency of enzymatic digestion) ([7]; 2 h incubation) | MMP-2/-9 cleaved product Fmoc–Gly–Pro–Leu–Gly detected (efficiency of enzymatic digestion) ([7]; 8 h incubation) | MMP-2/-9 cleaved product Fmoc–Gly–Pro–Leu–Gly detected (efficiency of enzymatic digestion) ([7]; 12 h incubation) | substrate (octapeptide) observed after incubation with collagenase IV ([7]; 12 h incubation)
COc1cccc2c1C(=O)c1c(O)c3c(c(O)c1C2=O)C[C@@](O)(C(=O)CO)C[C@@H]3O[C@H]1C[C@H](NC(=O)CNC(=O)CNC(=O)[C@H](C)NC(=O)[C@@H](N)CC(C)C)[C@H](O)[C@H](C)O1 (H-LAGG-{Doxorubicin(3'-N)}) | 4.24 (±0.09) log (unit not printed) | 5.6e+06 M⁻¹ | 540000 M⁻¹ |  |  |  |  |  |  |  |  |  |  |  |  |  |  | 
COc1cccc2c1C(=O)c1c(O)c3c(c(O)c1C2=O)C[C@@](O)(C(=O)CO)C[C@@H]3O[C@H]1C[C@H](N)[C@H](O)[C@H](C)O1 [DOX, Doxorubicin] |  | 1.1e+07 M⁻¹ | 1.1e+06 M⁻¹ | 6.03 (±0.04) log (unit not printed) | 7.29 (±0.09) | 6.03 (±0.04) | −9.52 (±0.17) kcal/mol | -1.3 kcal/mol | −8.26 (±0.05) kcal/mol | 1.1e+06 M⁻¹ | -8.23 kcal/mol | 9.37e+15 M⁻¹ s⁻¹ | approximately 1.0 | 1.057 ± 0.022 ns |  |  |  | 
CC(C)C[C@H](NC(=O)CNC(=O)[C@H](CC(C)C)NC(=O)[C@@H]1CCCN1C(=O)CNC(=O)OCC1c2ccccc2-c2ccccc21)C(=O)N[C@@H](C)C(=O)NCC(=O)NCC(=O)O [Fmoc–Gly–Pro–Leu–Gly–Leu–Ala–Gly–Gly] (Fmoc-GPLGLAGG-OH) |  |  |  |  |  |  |  |  |  |  |  |  |  |  | 52.54% | 69.53% | 82.42% | 17.43%
